One data set has as its target CRTH2 receptor (Homo sapiens (Human), UniProt Q9Y5Y4). The data set can be described thus: [3H]PGD2 radioligand binding assay on CHO/CRTH2 cell membranes. To be noted: for Ki: [3H]PGD2, CHO/CRTH2 membranes. The procedure:
Chinese Hamster Ovary cells were transfected with CRTH2 or DP receptors (CHO/CRTH2 and CHO/DP) and were maintained in culture in a humidified atmosphere at 37° C. (5% CO2) in Minimum Essential Medium (MEM) supplemented with 10% foetal bovine serum, 2 mM glutamine, and 1 mg ml^−1 active G418. The cells were passaged every 2-3 days. For radioligand binding assay, cells were prepared in triple-layer flasks or in 175 cm^2 square flasks (for membrane preparation).
Membranes were prepared either from CHO/CRTH2 and CHO/DP cells, or from platelets (as a source of TP receptors). CHO cells grown to confluency were washed with PBS and detached using a Versene solution (15 ml per flask). When the cells were grown in 175 cm^2 square flask, they were collected by scrapping in PBS. The cell suspensions were centrifuged (1,700 rpm, 10 min, 4° C.) and resuspended in 15 ml of buffer (1×HBSS, supplemented with 10 mM HEPES, pH 7.3). Cell suspensions were then homogenised using an Ultra Turrax at setting 4-6 for 20 s. The homogenate was centrifuged at 1,700 rpm for 10 min and the supernatant was collected and centrifuged at 20,000 rpm for 1 h at 4° C. The resulting pellet was resuspended in buffer and stored at −80° C. in aliquots of […] The protein concentration was determined by the method of Bradford (1976), using bovine serum albumin as standard. The platelets were washed by centrifugation at 600×g for 10 min and resuspended in ice-cold assay buffer (10 mM Tris-HCl, pH 7.4, 5 mM Glucose, 120 mM NaCl, 10 μM indomethacin) and directly centrifuged at 20,000 rpm for 30 min at 4° C. The resulting pellet was treated as described above.
[^3H]PGD2 (160 Ci/mmol) binding experiments were performed on membranes prepared as described above. Assays were performed in a final volume of 100 μl of buffer (1×HBSS/HEPES 10 mM, pH 7.3). Cell membranes (15 μg) were preincubated at room temperature with varying concentration of competing ligand for 15 min. [^3H]PGD2 was then added and the incubation continued for a further one hour at room temperature. The reaction was terminated by the addition of 200 μl ice-cold assay buffer to each well, followed by rapid filtration through Whatman GF/B glass fibre filters using a Unifilter Cell harvester (PerkinElmer Life Sciences) and six washes of 300 μl of ice-cold buffer. The Unifilter plates were dried at room temperature for at least 1 h and the radioactivity retained on the filters was determined on a Beta Trilux counter (PerkinElmer Life Sciences), following addition of 40 μl of Optiphase Hi-Safe 3 (Wallac) liquid scintillation. Non specific binding was defined in the presence of 10 μM unlabelled PGD2. Assays were performed in duplicate.

In data set [1] the test system is eosinophils in human whole blood. Kind of data set: Human whole blood eosinophil shape change assay (PGD2-induced). Conditions: for IC50: Eosinophil, 10 nM PGD2, human whole blood, read-out: IC50 for effect on 10 nM PGD2-induced eosinophil shape change in human whole blood. It counts as cell-based. Here is the method:
Compounds 1-3 were assayed for their effect on PGD2 induced eosinophil shape change and were compared with Comparator Compounds A, B and D.
Compounds (1 μl, 200× final concentration) were added directly to 200 μl whole blood, mixed well and incubated for 15 min, 37° C., 5% CO2. After this time, cell shape was fixed by addition of 300 μl Cytofix™ buffer (BD Biosciences), 15 min on ice. 10 ml RBC lysis buffer was added to the fixed cells, incubated 5 min, at room temperature and centrifuged, 300×g for 5 min. Supernatant (containing lysed red cells) was removed and the lysis step was repeated. Leukocytes were resuspended in 250 μl RPMI/10% FCS and shape change analysed by FACS. Eosinophils were gated out based on their autofluorescence and 2000 eosinophil events were counted per sample. Data were analysed in triplicate.

A further data set can be described thus: Microsomal stability. The class given is in vitro ADME, human. Conditions: for Mean Parent remaining (%): 1 x 10^-6 M test compound, human liver microsomes 0.3 mg/ml, mean of two experiments; for unmetabolised in human liver microsomes: text states. The procedure:
The percentage of the test compound remaining in the sample after 1 hour was measured in order to determine the rate of metabolism of test compound. The results are shown in Table 3, which gives the results for two experiments and the mean value obtained.

Data set [2] is described as follows: In vivo pharmacokinetic profile in the dog. To be noted: plasma.

By Ki is commonly meant a measure of affinity in units of concentration, obtained from inhibition or displacement. A lower Ki goes with higher affinity. Usually IC50 stands for the point on the concentration scale where inhibition reaches its midpoint. What is called half-life is how long it takes for the measured level to halve. A low value points to fast loss.

Chain of CRTH2 receptor (Q9Y5Y4 whole entry): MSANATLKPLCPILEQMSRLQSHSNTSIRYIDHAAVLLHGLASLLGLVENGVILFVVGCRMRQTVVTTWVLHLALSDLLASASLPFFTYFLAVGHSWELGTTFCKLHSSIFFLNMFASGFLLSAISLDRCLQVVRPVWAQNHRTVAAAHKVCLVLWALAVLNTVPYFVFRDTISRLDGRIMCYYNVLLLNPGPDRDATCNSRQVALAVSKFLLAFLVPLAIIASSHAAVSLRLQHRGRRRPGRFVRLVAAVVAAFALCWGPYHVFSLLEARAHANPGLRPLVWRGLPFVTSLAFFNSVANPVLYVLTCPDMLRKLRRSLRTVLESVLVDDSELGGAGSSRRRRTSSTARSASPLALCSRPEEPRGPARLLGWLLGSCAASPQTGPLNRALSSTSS

Regarding `Cc1c(Cc2cccnc2S(=O)(=O)c2ccccc2)c2cc(F)ccc2n1CC(=O)O` [Compound 1, (3-{[2-(Benzenesulfonyl)pyridin-3-yl]methyl}-5-fluoro-2-methylindol-1-yl)-acetic acid], on CRTH2 receptor, the Ki amounted to 2 nM. Moreover, the IC50 in data set [1] came out at 9 nM. In addition, in “Microsomal stability”, the “Mean Parent remaining (%)” value was found to be 96% and the “unmetabolised in human liver microsomes” value worked out at 96%. In data set [2] (oral), this molecule had a half-life of 3 h.
On to `Cc1c(Cc2cccnc2S(=O)(=O)c2ccc(F)cc2)c2cc(F)ccc2n1CC(=O)O` [Compound 2, [5-Fluoro-3-({2-[(4-fluorobenzene)sulfonyl]pyridin-3-yl}methyl)-2-methylindol-1-yl]-acetic acid], for which the IC50 in data set [1] came out at 2.5 nM. Moreover, in “Microsomal stability”, the “Mean Parent remaining (%)” value was 98% and the “unmetabolised in human liver microsomes” value stood at 98%. In data set [2], this molecule had a half-life of 5 h.
`Cc1c(Cc2cccnc2S(=O)(=O)c2ccc(Cl)cc2)c2cc(F)ccc2n1CC(=O)O` [Compound 3, [3-({2-[(4-Chlorobenzene)sulfonyl]pyridin-3-yl}methyl)-5-fluoro-2-methylindol-1-yl]-acetic acid]: the half-inhibitory concentration (IC50) in data set [1] stood at 10 nM.
Molecule `Cc1c(Cc2ccc(S(C)(=O)=O)cc2)c2cc(F)ccc2n1CC(=O)O` [Compound A, [3-(4-Methylsulfonyl-benzyl)-5-fluoro-2-methyl-indol-1-yl]-acetic acid] gave a Ki on CRTH2 receptor of 7 nM. In addition, the IC50 in data set [1] turned out to be 8 nM. The half-life in data set [2] (oral) is 1 h.
Take `Cc1c(Cc2ccncc2S(=O)(=O)c2ccccc2)c2cc(F)ccc2n1CC(=O)O` [Compound B, [3-(3-Benzenesulfonyl-pyridin-4ylmethyl)-5-fluoro-2-methyl-indol-1-yl]-acetic acid]: the affinity on CRTH2 receptor corresponds to a Ki of 1 nM. In addition, the IC50 in data set [1] was 34 nM. Besides, in data set [1] (eosinophil shape change test, whole blood), the “CRTH2 antagonist potency under physiological conditions (in words)” value is on record as “not a particularly potent CRTH2 antagonist”. In “Microsomal stability”, the “Mean Parent remaining (%)” value was 69% and the “unmetabolised in human liver microsomes” value is 69%.
Regarding `Cc1c(Cc2ncccc2S(=O)(=O)c2ccccc2)c2cc(F)ccc2n1CC(=O)O` [Compound C, [3-(3-Benzenesulfonyl-pyridin-2-ylmethyl)-5-fluoro-2-methyl-indol-1-yl]-acetic acid], at CRTH2 receptor, the “binding to the CRTH2 receptor (in words)” value is given as “bind only very weakly” and the affinity corresponds to a Ki of 979 nM. Also, in “Microsomal stability”, the “Mean Parent remaining (%)” value is 90% and the “unmetabolised in human liver microsomes” value was found to be 90%.
On to `Cc1c(Cc2cccn2S(=O)(=O)c2ccccc2)c2cc(F)ccc2n1CC(=O)O` [Compound D, [3-(1-Benzenesulfonyl-1H-pyrrol-2-ylmethyl)-5-fluoro-2-methyl-indol-1-yl]-acetic acid], for which the IC50 in data set [1] came out at 8 nM. In “Microsomal stability”, the “Mean Parent remaining (%)” value turned out to be 24% and the “unmetabolised in human liver microsomes” value is 24%. In addition, in “Microsomal stability” (human microsomes), the “stability in human microsomes (in words)” value is listed as “low stability”.
For the molecule `Cc1c(Cc2cccnc2)c2cc(F)ccc2n1CC(=O)O` [Compound E], on CRTH2 receptor, the “binding to the CRTH2 receptor (in words)” value was “bind only very weakly” and the Ki stood at 258 nM.

These data come from patent US8536158B2, “Compounds having CRTH2 antagonist activity” (Atopix Therapeutics Limited, priority 2008, dated 2013).
